We go through 27 compounds from US8735414B2 (priority 2009, dated 2014).

For data set [1], the system named is bicistronic HCV replicon (replicon RNA, GenBank Accession No. AJ242654). The experiment in a line: HCV Replicon Assay. It counts as cell-based. As to conditions: Hepatitis C virus, 72 h, read-out: Replicon IC50. For orientation: In antiviral work, replicon cells carry a viral genome segment that copies itself.

Structures are written as SMILES. pIC50: −log10 of the molar value.

In general, pIC50 refers to the IC50 on a negative log10 scale, so that one unit is a factor of ten. The term melting point denotes the temperature, or range, at which the solid turns liquid.

The compound `CC(=O)c1sccc1-n1c(-c2ccc(S(=O)(=O)N[C@@H](C)C(F)(F)F)cn2)c(C#N)c2cc(F)c(C)cc21` [compound 1055, 6-[1-(2-acetylthiophen-3-yl)-3-cyano-5-fluoro-6-methyl-1H-indol-2-yl]-N-[(2S)-1,1,1-trifluoropropan-2-yl]pyridine-3-sulfonamide] yielded a melting point of 208.7 to 212.4 °C. Also, the pIC50 in data set [1] was 5.70 to 6.30.
In turn, `CC(C)(C)S(=O)(=O)Nc1ccc(-c2c(C(N)=O)c3cc(F)c(C4CC4)cc3n2-c2ccccc2)cn1` [compound 1100, 2-{6-[(tert-butylsulfonyl)amino]pyridin-3-yl}-6-cyclopropyl-5-fluoro-1-phenyl-1H-indole-3-carboxamide] gave a melting point of 272 to 274 °C. In addition, in data set [1], the pIC50 is above 6.30.
For `Cc1cc2c(cc1F)c(C(N)=O)c(-c1ccc(S(=O)(=O)N[C@@H](C)C(F)(F)F)cn1)n2-c1cccnn1` [compound 912, 5-fluoro-6-methyl-1-(pyridazin-3-yl)-2-(5-{[(2S)-1,1,1-trifluoropropan-2-yl]sulfamoyl}pyridin-2-yl)-1H-indole-3-carboxamide], in that order: 176 to 181 °C and 5.30 to 5.70.
On to `C[C@H](NS(=O)(=O)c1ccc(-c2c(C(=O)O)c3cc(F)ccc3n2C2CCCCC2)nc1)C(F)(F)F` [compound 741, 1-cyclohexyl-5-fluoro-2-(5-{[(2S)-1,1,1-trifluoropropan-2-yl]sulfamoyl}pyridin-2-yl)-1H-indole-3-carboxylic acid], for which the melting point fell in the range of 216 to 220 °C. Moreover, the pIC50 in data set [1] was 5.70 to 6.30.
For `CC(NS(=O)(=O)c1ccc(-c2c(C#N)c3ccc(OC(F)F)cc3n2C2CCCC2)nc1)C(F)(F)F` (stereo not drawn) [compound 53, 6-[3-cyano-1-cyclopentyl-6-(difluoromethoxy)-1H-indol-2-yl]-N-(1,1,1-trifluoropropan-2-yl)pyridine-3-sulfonamide], in that order: 189 to 195 °C and above 6.30.
In turn, `Cc1cc2c(cc1F)c(C(N)=O)c(-c1ccc(S(=O)(=O)N[C@H](C)C(F)(F)F)cn1)n2C1CCCC1` [compound 699, 1-cyclopentyl-5-fluoro-6-methyl-2-(5-{[(2R)-1,1,1-trifluoropropan-2-yl]sulfamoyl}pyridin-2-yl)-1H-indole-3-carboxamide] had a melting point of 243 to 245 °C. In data set [1], the pIC50 was above 6.30.
The matching figures for `N#Cc1c(-c2ccc(S(=O)(=O)NC(CF)CF)cn2)n(-c2ccccn2)c2ccc(F)cc12` [compound 96, 6-[3-cyano-5-fluoro-1-(pyridin-2-yl)-1H-indol-2-yl]-N-(1,3-difluoropropan-2-yl)pyridine-3-sulfonamide]: 170 to 172 °C and above 6.30.
For `CCc1ccc2c(c1)c(C#N)c(-c1ccc(S(=O)(=O)N[C@@H](C)C(F)(F)F)cn1)n2C1CCC1` [compound 339, 6-(3-cyano-1-cyclobutyl-5-ethyl-1H-indol-2-yl)-N-[(2S)-1,1,1-trifluoropropan-2-yl]pyridine-3-sulfonamide], in that order: 168 to 169 °C and above 6.30.
For `N#Cc1c(-c2ccc(S(=O)(=O)NC(CF)CF)cn2)n(-c2ccccc2F)c2cc(OC(F)F)ccc12` [compound 227, 6-[3-cyano-6-(difluoromethoxy)-1-(2-fluorophenyl)-1H-indol-2-yl]-N-(1,3-difluoropropan-2-yl)pyridine-3-sulfonamide], in that order: 188 to 191 °C and above 6.30.
For the compound `N#Cc1c(-c2ccc(S(N)(=O)=O)cn2)n(CC2CC2)c2cc(OC(F)F)c(F)cc12` [compound 812, 6-[3-cyano-1-(cyclopropylmethyl)-6-(difluoromethoxy)-5-fluoro-1H-indol-2-yl]pyridine-3-sulfonamide], the melting point lay within 173 to 178 °C. In data set [1], the pIC50 is 5.30 to 5.70.
The matching figures for `CCc1cc2c(cc1F)c(C#N)c(-c1ccc(S(=O)(=O)NC(CF)CF)cn1)n2C1CCCC1` [compound 639, 6-(3-cyano-1-cyclopentyl-6-ethyl-5-fluoro-1H-indol-2-yl)-N-(1,3-difluoropropan-2-yl)pyridine-3-sulfonamide]: 179.5 to 180 °C and above 6.30.
Take `CC(C)(C)NS(=O)(=O)c1ccc(-c2c(C#N)c3cc(F)ccc3n2C2CCC2)nc1` [compound 9, N-tert-butyl-6-(3-cyano-1-cyclobutyl-5-fluoro-1H-indol-2-yl)pyridine-3-sulfonamide]: the melting point fell in the range of 181 to 185 °C. For the same compound, the negative-log IC50 (pIC50) in data set [1] is above 6.30.
The matching figures for `Cc1ccc2c(C#N)c(-c3ccc(S(=O)(=O)N[C@H](C)C(F)(F)F)cn3)n(CC3CC3)c2c1` [compound 197, 6-[3-cyano-1-(cyclopropylmethyl)-6-methyl-1H-indol-2-yl]-N-[(2R)-1,1,1-trifluoropropan-2-yl]pyridine-3-sulfonamide]: 165 to 169 °C and above 6.30.
For `N#Cc1c(-c2ccc(S(=O)(=O)NC3(C(F)(F)F)CC3)cn2)n(-c2ccc(F)cc2)c2cc(OC(F)F)ccc12` [compound 664, 6-[3-cyano-6-(difluoromethoxy)-1-(4-fluorophenyl)-1H-indol-2-yl]-N-[1-(trifluoromethyl)cyclopropyl]pyridine-3-sulfonamide], in that order: 195 to 198 °C and above 6.30.
For `COc1ccc2c(c1)c(C#N)c(-c1ncc(S(=O)(=O)N[C@@H](C)C(F)(F)F)cn1)n2C1CCC1` [compound 569, 2-(3-cyano-1-cyclobutyl-5-methoxy-1H-indol-2-yl)-N-[(2S)-1,1,1-trifluoropropan-2-yl]pyrimidine-5-sulfonamide], in that order: 203 to 205 °C and 5.70 to 6.30.
The compound `CC(C)NS(=O)(=O)c1cnc(-c2c(C#N)c3ccc(F)cc3n2C2CCCC2)nc1` [compound 141, 2-(3-cyano-1-cyclopentyl-6-fluoro-1H-indol-2-yl)-N-(propan-2-yl)pyrimidine-5-sulfonamide] had a melting point of 216 to 217 °C. Besides, the pIC50 in data set [1] was 5.70 to 6.30.
For `CC(C)NS(=O)(=O)c1cnc(-c2c(C#N)c3ccc(F)cc3n2C(C)C)nc1` [compound 140, 2-[3-cyano-6-fluoro-1-(propan-2-yl)-1H-indol-2-yl]-N-(propan-2-yl)pyrimidine-5-sulfonamide], in that order: 158 to 160 °C and 5.70 to 6.30.
The matching figures for `N#Cc1c(-c2ncc(S(=O)(=O)NC(CF)CF)cn2)n(C2CCCCC2)c2ccc(Cl)cc12` [compound 463, 2-(5-chloro-3-cyano-1-cyclohexyl-1H-indol-2-yl)-N-(1,3-difluoropropan-2-yl)pyrimidine-5-sulfonamide]: 251 to 253 °C and above 6.30.
The compound `CC(C)(C)NS(=O)(=O)c1ccc(-c2c(C#N)c3cc(F)c(Br)cc3n2-c2ncccn2)nc1` [compound 938, 6-[6-bromo-3-cyano-5-fluoro-1-(pyrimidin-2-yl)-1H-indol-2-yl]-N-tert-butylpyridine-3-sulfonamide] had a melting point of 266 to 268 °C. In addition, the pIC50 in data set [1] was above 6.30.
For `CCc1cc2c(cc1F)c(C#N)c(-c1ccc(S(=O)(=O)N[C@@H](C)C(F)(F)F)cn1)n2-c1ccc(Cl)cc1` [compound 1003, 6-[1-(4-chlorophenyl)-3-cyano-6-ethyl-5-fluoro-1H-indol-2-yl]-N-[(2S)-1,1,1-trifluoropropan-2-yl]pyridine-3-sulfonamide], in that order: 279 to 289 °C and above 6.30.
The matching figures for `Cc1cc2c(cc1O)c(C#N)c(-c1ccc(S(=O)(=O)N[C@@H](C)C(F)(F)F)cn1)n2C1CCCC1` [compound 691, 6-(3-cyano-1-cyclopentyl-5-hydroxy-6-methyl-1H-indol-2-yl)-N-[(2S)-1,1,1-trifluoropropan-2-yl]pyridine-3-sulfonamide]: 232 to 233 °C and above 6.30.
For `C[C@H](NS(=O)(=O)c1ccc(-c2c(C#N)c3cc(Cl)ccc3n2C2CCC2)nc1)C1CC1` [compound 119, 6-(5-chloro-3-cyano-1-cyclobutyl-1H-indol-2-yl)-N-[(1S)-1-cyclopropylethyl]pyridine-3-sulfonamide], in that order: 154 to 155 °C and above 6.30.
With `C[C@H](NS(=O)(=O)c1ccc(-c2c(C#N)c3cc(O)c(OC(F)F)cc3n2C2CCC2)nc1)C(F)(F)F` [compound 674, 6-[3-cyano-1-cyclobutyl-6-(difluoromethoxy)-5-hydroxy-1H-indol-2-yl]-N-[(2S)-1,1,1-trifluoropropan-2-yl]pyridine-3-sulfonamide], the melting point lay within 174 to 177 °C. Moreover, the pIC50 in data set [1] is above 6.30.
Take `CCc1cc2c(cc1F)c(C(N)=O)c(-c1ccc(S(=O)(=O)N[C@@H](C)C(F)(F)F)cn1)n2-c1cccnn1` [compound 1046, 6-ethyl-5-fluoro-1-(pyridazin-3-yl)-2-(5-{[(2S)-1,1,1-trifluoropropan-2-yl]sulfamoyl}pyridin-2-yl)-1H-indole-3-carboxamide]: the melting point was 206 to 212 °C. In addition, the negative logarithm of the IC50 (pIC50) in data set [1] is 5.30 to 5.70.
For `CC(C)(C)NS(=O)(=O)c1ccc(-c2c(C(N)=O)c3cc(F)c(OC(F)F)cc3n2C2CCC2)nc1` [compound 723, 2-[5-(tert-butylsulfamoyl)pyridin-2-yl]-1-cyclobutyl-6-(difluoromethoxy)-5-fluoro-1H-indole-3-carboxamide], in that order: 158 to 160 °C and above 6.30.
For `C[C@H](NS(=O)(=O)c1ccc(-c2c(C#N)c3ccc(OC(F)F)cc3n2-c2ccccc2)nc1)C(F)(F)F` [compound 553, 6-[3-cyano-6-(difluoromethoxy)-1-phenyl-1H-indol-2-yl]-N-[(2S)-1,1,1-trifluoropropan-2-yl]pyridine-3-sulfonamide], in that order: 209 to 211 °C and above 6.30.
The matching figures for `CC(C)NS(=O)(=O)c1cnc(-c2c(C#N)c3ccc(C(C)C)cc3n2C2CCC2)nc1` [compound 185, 2-[3-cyano-1-cyclobutyl-6-(propan-2-yl)-1H-indol-2-yl]-N-(propan-2-yl)pyrimidine-5-sulfonamide]: 220 to 222 °C and above 6.30.
